# Key:
# Format in all cases: cell-based
# [1] = system: HCT-116 colorectal cancer cell line; assay: CCK-8 proliferation inhibition; details: Homo sapiens, HCT-116, 72 h, concentration of 30 μM; 72 hours; CCK-8; read-out: HCT116 inhibition rate/%
# Experimental: (1) HCT-116 colorectal cancer cell line, A549 lung cancer cell line, MGC-803 gastric cancer cell line, BEL-7402 liver cancer cell line, Jurkat T cell leukemia cell line, HL60 acute myeloid leukemia cell line, Hela cervical cancer cell line, MCF-7 breast cancer cell line, PC3 prostate cancer cell line and SAOS-2 osteosarcoma cell line were made into single cell suspension, 180 μL of which was inoculated into 96-well culture plate, which was cultured overnight in CO2 incubator (37° C., 5% CO2, 95% air).
# (2) Each of the spiro three-membered ring, spiro five membered ring peptide deformylase inhibitors was dissolved in DMSO, and was further formulated into drug solution with required different final concentration using corresponding cell culture medium. The drug solutions were added to the above cells respectively (20 μL/well), with the control group added with 1‰ DMSO, and cultured in a CO2 incubator for 72 hours.
# (3) After incubation for 72 hours, the culture solution was decanted, and 100 μL of 1:10 diluted CCK-8 solution was added.
# Wherein, in step (1), the concentration of the single cell suspension was 2000 cells/well.
# Wherein, in step (2), HCT-116 cells were cultured in McCoy's 5A medium (containing 10% newborn bovine serum, 1% double antibody); A549 and PC3 cells were cultured in F12 medium (containing 10% newborn bovine serum, 1% double antibody); MGC-803, BEL-7402, SAOS-2, Jurkat and HL60 cells were cultured in 1640 medium (containing 10% newborn bovine serum, 1% double antibody); and MCF-7 and Hela cells were cultured in DMEM high glucose medium (containing 10% newborn bovine serum, 1% double antibody).
# [2] = system: methicillin-sensitive Staphylococcus epidermidis (MSSE); assay: MIC, two-fold agar dilution (CLSI), clinical isolates
# Excerpt: (§1) 1. The invention adopts the two-fold agar dilution method recommended by the operating procedure of antimicrobial susceptibility testing set by American Clinical and Laboratory Standards Institute (CLSI) to determine the Minimum Inhibitory Concentration (MIC) of the test samples against the tested strains.
# [3] = system: Streptococcus pneoumoniae (SPN); assay: as above
# Excerpt: as §1
# [4] = system: methicillin-resistant Staphylococcus aureus (MRSA); assay: as above
# Excerpt: as §1
# [5] = system: Enterococcus faecium (EFM); assay: as above
# Excerpt: as §1
# [6] = system: methicillin-sensitive Staphylococcus aureus (MSSA); assay: as above
# Excerpt: as §1
# [7] = system: Enterococcus faecalis (EFA); assay: as above
# Excerpt: as §1
# [8] = system: Moraxella catarrhalis (BCA); assay: as above
# Excerpt: as §1
# [9] = system: Escherichia coli (including ESBLs, non-ESBLs); assay: as above
# Excerpt: as §1
# [10] = system: methicillin-resistant Staphylococcus epidermidis (MRSE); assay: as above
# Excerpt: as §1
smiles,measurement,setting,value
CCCC[C@H](CN(O)C=O)C(=O)N1CC2(CC2)C[C@H]1C(=O)NC1CC1 [Example 18],inhibition at 30 µM,[1],5%
same,MIC (anti-bacterial activity),[2]; strain MSSE 15-3,2 µg/mL
same,MIC (anti-bacterial activity),[2]; strain MSSE 15-4,2 µg/mL
same,MIC (anti-bacterial activity),[2]; strain MSSE 15-5,2 µg/mL
same,MIC (anti-bacterial activity),[2]; strain MSSE 15-6,2 µg/mL
same,MIC (anti-bacterial activity),[3]; strain SPN 16-2,16 µg/mL
same,MIC (anti-bacterial activity),[3]; strain SPN 16-4,4 µg/mL
same,MIC (anti-bacterial activity),[4]; strain MRSA 15-1,2 µg/mL
same,MIC (anti-bacterial activity),[4]; strain MRSA 15-2,2 µg/mL
same,MIC (anti-bacterial activity),[4]; strain MRSA 15-3,2 µg/mL
same,MIC (anti-bacterial activity),[4]; strain MRSA 15-4,2 µg/mL
same,MIC (anti-bacterial activity),[5]; strain EFM 15-1,8 µg/mL
same,MIC (anti-bacterial activity),[5]; strain EFM 15-2,8 µg/mL
same,MIC (anti-bacterial activity),[5]; strain EFM 15-3,2 µg/mL
same,MIC (anti-bacterial activity),[5]; strain EFM 15-4,8 µg/mL
same,MIC (anti-bacterial activity),[5]; strain EFM 15-5,4 µg/mL
same,MIC (anti-bacterial activity),[5]; strain EFM 15-6,8 µg/mL
same,MIC (anti-bacterial activity),[6]; strain MSSA 15-3,2 µg/mL
same,MIC (anti-bacterial activity),[6]; strain MSSA 15-4,2 µg/mL
same,MIC (anti-bacterial activity),[6]; strain MSSA 15-5,2 µg/mL
same,MIC (anti-bacterial activity),[6]; strain MSSA 15-6,2 µg/mL
same,MIC (anti-bacterial activity),[7]; strain EFA 15-1,32 µg/mL
same,MIC (anti-bacterial activity),[7]; strain EFA 15-2,32 µg/mL
same,MIC (anti-bacterial activity),[7]; strain EFA 15-3,8 µg/mL
same,MIC (anti-bacterial activity),[7]; strain EFA 15-4,32 µg/mL
same,MIC (anti-bacterial activity),[7]; strain EFA 15-5,32 µg/mL
same,MIC (anti-bacterial activity),[7]; strain EFA 15-6,32 µg/mL
same,MIC (anti-bacterial activity),[7]; strain EFA 15-9,32 µg/mL
same,MIC (anti-bacterial activity),[8]; strain BCA 14-1,16 µg/mL
same,MIC (anti-bacterial activity),[8]; strain BCA 14-4,8 µg/mL
same,MIC (anti-bacterial activity),[8]; strain BCA 14-5,4 µg/mL
same,MIC (anti-bacterial activity),[8]; strain BCA 14-6,16 µg/mL
same,MIC (anti-bacterial activity),[8]; strain BCA 14-7,4 µg/mL
same,MIC (anti-bacterial activity),[8]; strain BCA 14-8,4 µg/mL
same,MIC (anti-bacterial activity),[8]; strain BCA 14-10,4 µg/mL
same,MIC (anti-bacterial activity),[9]; strain ECO+ 15-1,32 µg/mL
same,MIC (anti-bacterial activity),[9]; strain ECO+ 15-2,32 µg/mL
same,MIC (anti-bacterial activity),[9]; strain ECO+ 15-3,32 µg/mL
same,MIC (anti-bacterial activity),[9]; strain ECO+ 15-4,32 µg/mL
same,MIC (anti-bacterial activity),[9]; strain ECO− 15-1,> 32 µg/mL
same,MIC (anti-bacterial activity),[9]; strain ECO− 15-2,> 32 µg/mL
same,MIC (anti-bacterial activity),[9]; strain ECO− 15-3,32 µg/mL
same,MIC (anti-bacterial activity),[9]; strain ECO− 15-4,32 µg/mL
same,MIC (anti-bacterial activity),[10]; strain MRSE 15-1,2 µg/mL
same,MIC (anti-bacterial activity),[10]; strain MRSE 15-2,2 µg/mL
same,MIC (anti-bacterial activity),[10]; strain MRSE 15-3,2 µg/mL
same,MIC (anti-bacterial activity),[10]; strain MRSE 15-7,2 µg/mL
CCCC[C@H](CN(O)C=O)C(=O)N1CC2(CC2)C[C@H]1C(=O)Nc1nc(C)cs1 [Example 19],inhibition at 30 µM,[1],6%
same,MIC (anti-bacterial activity),[2]; strain MSSE 15-3,0.125 µg/mL
same,MIC (anti-bacterial activity),[2]; strain MSSE 15-4,0.125 µg/mL
same,MIC (anti-bacterial activity),[2]; strain MSSE 15-5,0.03 µg/mL
same,MIC (anti-bacterial activity),[2]; strain MSSE 15-6,0.015 µg/mL
same,MIC (anti-bacterial activity),[3]; strain SPN 16-2,4 µg/mL
same,MIC (anti-bacterial activity),[3]; strain SPN 16-4,0.25 µg/mL
same,MIC (anti-bacterial activity),[4]; strain MRSA 15-1,0.125 µg/mL
same,MIC (anti-bacterial activity),[4]; strain MRSA 15-2,0.125 µg/mL
same,MIC (anti-bacterial activity),[4]; strain MRSA 15-3,0.03 µg/mL
same,MIC (anti-bacterial activity),[4]; strain MRSA 15-4,0.25 µg/mL
same,MIC (anti-bacterial activity),[5]; strain EFM 15-1,8 µg/mL
same,MIC (anti-bacterial activity),[5]; strain EFM 15-2,4 µg/mL
same,MIC (anti-bacterial activity),[5]; strain EFM 15-3,0.25 µg/mL
same,MIC (anti-bacterial activity),[5]; strain EFM 15-4,2 µg/mL
same,MIC (anti-bacterial activity),[5]; strain EFM 15-5,0.25 µg/mL
same,MIC (anti-bacterial activity),[5]; strain EFM 15-6,2 µg/mL
same,MIC (anti-bacterial activity),[6]; strain MSSA 15-3,0.125 µg/mL
same,MIC (anti-bacterial activity),[6]; strain MSSA 15-4,0.125 µg/mL
same,MIC (anti-bacterial activity),[6]; strain MSSA 15-5,0.03 µg/mL
same,MIC (anti-bacterial activity),[6]; strain MSSA 15-6,0.25 µg/mL
same,MIC (anti-bacterial activity),[7]; strain EFA 15-1,8 µg/mL
same,MIC (anti-bacterial activity),[7]; strain EFA 15-2,8 µg/mL
same,MIC (anti-bacterial activity),[7]; strain EFA 15-3,8 µg/mL
same,MIC (anti-bacterial activity),[7]; strain EFA 15-4,8 µg/mL
same,MIC (anti-bacterial activity),[7]; strain EFA 15-5,8 µg/mL
same,MIC (anti-bacterial activity),[7]; strain EFA 15-6,8 µg/mL
same,MIC (anti-bacterial activity),[7]; strain EFA 15-9,8 µg/mL
same,MIC (anti-bacterial activity),[8]; strain BCA 14-1,1 µg/mL
same,MIC (anti-bacterial activity),[8]; strain BCA 14-4,1 µg/mL
same,MIC (anti-bacterial activity),[8]; strain BCA 14-5,0.125 µg/mL
same,MIC (anti-bacterial activity),[8]; strain BCA 14-6,0.5 µg/mL
same,MIC (anti-bacterial activity),[8]; strain BCA 14-7,0.25 µg/mL
same,MIC (anti-bacterial activity),[8]; strain BCA 14-8,0.25 µg/mL
same,MIC (anti-bacterial activity),[8]; strain BCA 14-10,0.125 µg/mL
same,MIC (anti-bacterial activity),[9]; strain ECO+ 15-1,32 µg/mL
same,MIC (anti-bacterial activity),[9]; strain ECO+ 15-2,> 32 µg/mL
same,MIC (anti-bacterial activity),[9]; strain ECO+ 15-3,> 32 µg/mL
same,MIC (anti-bacterial activity),[9]; strain ECO+ 15-4,> 32 µg/mL
same,MIC (anti-bacterial activity),[9]; strain ECO− 15-1,> 32 µg/mL
same,MIC (anti-bacterial activity),[9]; strain ECO− 15-2,> 32 µg/mL
same,MIC (anti-bacterial activity),[9]; strain ECO− 15-3,> 32 µg/mL
same,MIC (anti-bacterial activity),[9]; strain ECO− 15-4,> 32 µg/mL
same,MIC (anti-bacterial activity),[10]; strain MRSE 15-1,0.06 µg/mL
same,MIC (anti-bacterial activity),[10]; strain MRSE 15-2,0.125 µg/mL
same,MIC (anti-bacterial activity),[10]; strain MRSE 15-3,0.125 µg/mL
same,MIC (anti-bacterial activity),[10]; strain MRSE 15-7,0.125 µg/mL

# Reference: patent publication US10738028B2, “Spiro three-membered ring, spiro five-membered ring peptide deformylase inhibitor and use thereof in antibacteria and anti-tumor” (priority 2016, dated 2020)
